Assay results from the METLIN SMRT retention time set (Domingo-Almenara et al. 2019).

Experiment: gradient 5% acetonitrile 3 min, to 50% in 2 min, to 85% in 15 min, held 3 min, 100 µL/min
Details: column: Zorbax Extend-C18 2.1 x 50 mm; eluents: water / acetonitrile, 0.1% formic acid
How it was run: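 Over 3 months, pure standards in mixtures of ~100 molecules were run by HPLC coupled to a quadrupole time-of-flight mass spectrometer in positive and negative ionization mode. The column was a Zorbax Extend-C18 (2.1 × 50 mm, 1.8 μm) at 100 μL/min, eluted with water and acetonitrile each holding 0.1% formic acid, with 40 μL dead and 900 μL dwell volumes. Retention time was determined from adduct peaks chosen by software and checked manually.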

SMILES	RP-LC retention time [s]
O=C(Nc1ccccc1Cl)C(=O)c1cn(CC(=O)N2CCCC2)c2ccccc12	1070
CCOc1ccc(NC(=O)C2CC(=O)N(CCc3c[nH]c4ccc(Cl)cc34)C2)cc1 (centres undefined)	870
Cc1c(Cl)cccc1NC(=O)C1CCCN(c2ccc(-n3cccn3)nn2)C1 (centres undefined)	784
CCCn1cc(C2=CCN(C(=O)Nc3ccc(C)c(C)c3)CC2)c2cccnc21	1010
CC(C)c1ccc(-n2nc(N3CCN(C(=O)c4cccs4)CC3)ccc2=O)cc1	913
CCn1cc(-c2ccc(C)cc2)cc1C(=O)NCCOC	919
NC(=O)N/N=C1\CC2CC1C1C=CCC21 (centres undefined)	768
O=S(=O)(c1cccn2c(SCc3cccc(Br)c3)nnc12)N1CCCCC1	930
O=C(Cc1nnc(-c2ccc3ncccc3c2)o1)NCc1ccccc1F	695
CC(C)CCNC(=O)N1C[C@@H]2CCCN3CCC[C@@H]([C@H]23)[C@H]1CCCC(=O)NCC1CC1	625
COc1ccc2c(c1)C1(CCN(C(=O)Cc3ccc(OC)c(Cl)c3)C1)C(=O)N2 (centres undefined)	745
Cc1ccc(C(=O)N2CCN(c3nc(CN4CCOCC4)cs3)CC2)cc1F	629
CC(C)(C)CC(=O)N1CCC(Oc2nccnc2N2CCc3ccccc32)C1 (centres undefined)	1060
CCOC(=O)N1CCN(C(=O)Cc2c(C)nn(-c3nc(-c4ccc(Cl)cc4)cs3)c2C)CC1	1110
CC1=C(c2ccc(F)cc2)S(=O)(=O)N=C1N1CCCN(C(=O)CC2CCCC2)CC1	883
COc1ccc(-c2ccc(N3CCN(c4ccccc4)CC3)nn2)cc1S(=O)(=O)N1CCOCC1	766
CCOCC(=O)N1CCCN(C2=NS(=O)(=O)C(c3ccc(CC)cc3)=C2C)CC1	790
O=C(CN1C(=O)NC2(CCCCC2)C1=O)NCc1cccc(Br)c1	772
Cc1ccc(-c2nnc(Cc3nc(-c4ccc(Br)cc4)no3)o2)cc1C	1230
Cc1cc(N2CCN(c3ccccc3)CC2)nc2ccccc12	710
CCOc1ccc(C2Cn3nnc(-c4nc(-c5ccccc5C)no4)c3CO2)cc1 (centres undefined)	1270
CCCCOc1ccccc1C(=O)N(Cc1ccc(Br)o1)C1CCS(=O)(=O)C1 (centres undefined)	991
Cc1cccc(NC(=O)Cn2cnc3nc(N4CCCC(C(=O)NC5CC5)C4)sc3c2=O)c1C (centres undefined)	688

SMILES	RP-LC retention time [s]
COc1cccc(CC(=O)NC2CCN(c3cc(-c4cccs4)[nH]n3)C2)c1 (centres undefined)	658
CC(=O)N1CCc2ccccc2C1C(=O)NC(C)C (centres undefined)	672
COc1ccc(Cl)cc1C(=O)N1CCN(c2cc(C)nc(N3CCOCC3)n2)CC1	644
Cn1c(=O)n([C@H]2CCN(C(=O)c3ccc(Cn4ccnc4)o3)C2)c2ncccc21	573
COc1cc(Cl)ccc1C(=O)N1CCC(OC2CCN(C)CC2)CC1	606
COC(=O)CSCC(=O)Nc1cc(C(F)(F)F)ccc1Cl	613
C=Cc1ccc(CN2CCCN(c3ncccc3-c3nc(C4CC4)no3)CC2)cc1	757
CC(=O)c1ccc(NC(=O)Cn2cccc2-c2nc(-c3ccc4c(c3)OCO4)no2)cc1	923
COc1ccc(-c2cnn3c(C)cc(C)nc23)cc1S(=O)(=O)NCCN(C)C	616
OC[C@H]1O[C@@H](n2cnc3c(NC4CCCC4)ncnc32)C(O)[C@H]1O (some centres undefined)	630
O=C(O)c1cnc(NCc2cccnc2)nc1-c1cccnc1	875
CCCCC(=O)N1CCN(c2ccc(=O)n(-c3ccc(Cl)cc3)n2)CC1	829
COc1cccc(CNC2=NCCNC23CCN(S(=O)(=O)c2ccc(C)cc2C)CC3)c1	747
CC(C)C(=O)N1CCc2ccccc2C1C(=O)N1CCN(c2ccc(F)cc2)CC1 (centres undefined)	930
CCCn1c(=O)c(C)nc2cc(-c3noc(-c4cccs4)n3)ccc21	1120
O=C(c1ccc2c(c1)N(Cc1ccccc1)C(=O)CO2)N1CCN(c2ccccn2)CC1	1230
O=C(CSc1cc(N2CCCC2)ncn1)NCc1cccs1	601
CC1Cc2ccccc2N1C(=O)c1ccc(=O)n(CCC(=O)NC2CCCCC2)n1 (centres undefined)	793
CN(C)c1ccc(-c2nc3cnccn3c2Nc2cccc(C(=O)O)c2)cc1	655
Cn1nc(C(=O)N2CCN(c3cc(-c4ccccc4)ncn3)CC2)ccc1=O	547
O=C(NCc1ccco1)N1CCCn2nc(-c3cccc(Cl)c3)cc2C1	854
COc1cc(OC)cc(C(=O)Nc2nc(-c3ccc4c(c3)NC(=O)C(C)O4)cs2)c1 (centres undefined)	940
Cc1nnc(-c2coc(S(=O)(=O)N3CCC(Cc4ccccc4)CC3)c2)o1	1010

SMILES	RP-LC retention time [s]
COc1cc(C(=O)N2CCC3(CC2)NC(=O)c2ccc(F)cc2N3C)cc(OC)c1OC	655
Cc1ccc(S(=O)(=O)n2c(N)nc3ccccc32)cc1	825
Cc1cccn2cc(C(=O)NCc3ccc(F)cc3F)nc12	733
COc1ccc(-c2nc3ccccn3c2Nc2ccc(C)cc2)cc1O	663
COc1ccc(-c2csc3nc[nH]c(=O)c23)cc1	671
Cc1nc(C2CN(S(=O)(=O)c3c(C)c(C)cc(C)c3C)CC23CCOCC3)no1 (centres undefined)	1020
COc1ccc(OC)c(CNC(=O)c2[nH]c3cc(C)sc3c2CN(C)C)c1	676
CC(C)NC(=O)N1CCCC(c2cccc(C(=O)NCc3ccccc3C(F)(F)F)c2)C1 (centres undefined)	966
COc1cc(NC(=O)Nc2c(-c3ccc(F)cc3)nc3ccccn23)cc(OC)c1	678
Cc1nn(CC(=O)NCCN2CCOCC2)c(=O)c2c(-n3cccc3)n(-c3ccc(F)cc3)nc12	654
Cc1ccccc1Nc1c(-c2ccc(N(C)C)cc2)nc2c(C)cccn12	798
CSc1ccc(-c2nc3cccc(C)n3c2Nc2ccccc2C)cc1	808
Cc1ccc(-c2noc(-c3nn(CC(=O)NC(C)C)c4ccccc34)n2)cc1	1080
CCC(C)C(NC(=O)Cc1ccc(OC)cc1Cl)C(=O)Nc1nc2ccccc2[nH]1 (centres undefined)	772
Cc1noc(/C=C\c2ccc(S(=O)(=O)N3CCCCC3C)cc2)c1NC(=O)C1CC1 (centres undefined)	938
Cc1sc2ccn(CC(C)C)c(=O)c2c1C(=O)NC(C)c1ccc(F)cc1 (centres undefined)	1030
CS(=O)(=O)c1cccc(-c2nnc(NC(=O)c3ccc(Cl)s3)o2)c1	711
Cc1cc(N2CCN(C(=O)COc3ccc(Cl)cc3)CC2)nc2nncn12	629
O=C(NCc1ccco1)c1csc(N2CCN(c3ccc(F)cc3)CC2)n1	991
CC(C)CNC(=O)c1ccc2nc(CCc3ccc(NC(=O)C(C)C)cc3)[nH]c2c1	644
Cc1noc(C)c1Cc1ccc(C(=O)NCc2nn(C)c3c2CN(C)CC3)o1	578
O=C(N[C@H]1C[C@@H]2C[C@H]1CN2C(=O)c1ccoc1)c1ccccc1	663
Cc1nn(CC(=O)N2CCC(N3CCCCC3)CC2)c(=O)c2nn(-c3ccccc3)c(C)c12	605

SMILES	RP-LC retention time [s]
CCOC(=O)C1CCCN(c2ncc(S(=O)(=O)c3ccc(C)cc3)c(N)n2)C1 (centres undefined)	983
CCc1cccc(N2C(=O)c3c(C(=O)OC)ncn3CC2(C)C(=O)NC2CCCC2)c1 (centres undefined)	615
CCOc1ccccc1-c1noc(-c2nnn3c2COC(c2ccc(OC)cc2)C3)n1 (centres undefined)	1080
CCc1nncn1C1CCN(S(=O)(=O)c2cccc(C)c2)CC1	697
Cc1c(-c2nsc(Nc3ccccc3)n2)nnn1-c1ccccc1	946
CCCN1C(=O)c2cc(C(=O)N3CCC(C)CC3)nn2CC1(C)C(=O)NC1CCCC1 (centres undefined)	817
Cc1nn2c(CNS(=O)(=O)c3cc(F)cc(F)c3)c(-c3ccccc3)nc2s1	905
CCn1ccc(C(=O)N2CCN(c3nnc4ccc(Cl)cn34)CC2)n1	562
CCCn1cc(CCNC(=O)Nc2ccc(Br)cc2)c2cccnc21	835
CS(=O)(=O)N1CCC(C(=O)N2CCCCC2)Oc2ccc(Cl)cc21 (centres undefined)	793
COc1ccc(CC(=O)NCC2CCC(c3nc4ccccc4n3C)CC2)cc1 (centres undefined)	579
CC1CCC2(CC1)NC(=O)N(CC(=O)Nc1ccc3c(c1)OCO3)C2=O (centres undefined)	708
COc1ccc(C2CC(=O)c3cnn(-c4nc5ccccc5[nH]4)c3C2)c(OC)c1 (centres undefined)	649
Cc1ccc(-c2noc(-c3ccc(NCCCN4CCOCC4)nc3)n2)cc1	695
CN1C(=O)CN=C(c2ccccc2)c2cc([N+](=O)[O-])ccc21	869
COC(=O)c1cc(Nc2ccc(OC)cc2OC)c2ccccc2n1	581
COCCn1c(CC2CCN(C(=O)c3ccc(C)s3)C2)nc2cccnc21 (centres undefined)	604
COCCN(Cc1ccncc1)C(=O)c1ccccc1SC	557
CC(C)CCNC(=O)C1CC(=O)N(c2n[nH]c3cccc(F)c23)C1 (centres undefined)	699
O=C(C1CCCO1)N1CCC2(CC1)NCCc1c2[nH]c2ccccc12 (centres undefined)	610
